Legend:
[1] = molecular target: T7 RNA polymerase (Escherichia phage T7, UniProt P00573); details: ribonucleotide triphosphates, FIG. 7
[2] = PCR incorporation of d5SICS α-thiotriphosphate opposite dNaM; assay type: biochemical; details: standard PCR
Description: The amplification efficiency and fidelity of incorporation of d(5SICS-αS)TP is greater than 99% and virtually identical to results obtained with d5SICS. To functionalize this unnatural base pair, we reacted the site-specifically incorporated phosphorothioate bond with iodoacetyl-PEG2-biotin to label the DNA duplex with the biotin functionality.^8 To characterize this site-specific adduct, we incubated it in the presence of streptavidin and then quantified the functionalization by gel shift assay. We were able to convert 60-70% of the phosphorothioate bond to the functionalized derivative, which is a standard efficiency (70%) for labeling protocols previously reported in literature (See Fidanza, J. A.; Ozaki, H.; McLaughlin, L. W., Site-specific labeling of DNA sequences containing phosphorothioate diesters. J. Am. Chem. Soc. […], 114 (14), 5509-5517.). These conjugated derivatives show high stability under conditions typical for heat denaturation of DNA duplexes, i.e. at 50° C. overnight within the range of pH 6.0-8.3 (<10% decomposition), as well as for at 95° C. for 3 minutes at pH 8.3 (<5% decomposition). We envision that the phosphorothioate strategy can be equally well employed with other unnatural base pairs, including d5SICS-dMMO2 and d5SICS-dNaM.

Sequence of T7 RNA polymerase (P00573 whole entry): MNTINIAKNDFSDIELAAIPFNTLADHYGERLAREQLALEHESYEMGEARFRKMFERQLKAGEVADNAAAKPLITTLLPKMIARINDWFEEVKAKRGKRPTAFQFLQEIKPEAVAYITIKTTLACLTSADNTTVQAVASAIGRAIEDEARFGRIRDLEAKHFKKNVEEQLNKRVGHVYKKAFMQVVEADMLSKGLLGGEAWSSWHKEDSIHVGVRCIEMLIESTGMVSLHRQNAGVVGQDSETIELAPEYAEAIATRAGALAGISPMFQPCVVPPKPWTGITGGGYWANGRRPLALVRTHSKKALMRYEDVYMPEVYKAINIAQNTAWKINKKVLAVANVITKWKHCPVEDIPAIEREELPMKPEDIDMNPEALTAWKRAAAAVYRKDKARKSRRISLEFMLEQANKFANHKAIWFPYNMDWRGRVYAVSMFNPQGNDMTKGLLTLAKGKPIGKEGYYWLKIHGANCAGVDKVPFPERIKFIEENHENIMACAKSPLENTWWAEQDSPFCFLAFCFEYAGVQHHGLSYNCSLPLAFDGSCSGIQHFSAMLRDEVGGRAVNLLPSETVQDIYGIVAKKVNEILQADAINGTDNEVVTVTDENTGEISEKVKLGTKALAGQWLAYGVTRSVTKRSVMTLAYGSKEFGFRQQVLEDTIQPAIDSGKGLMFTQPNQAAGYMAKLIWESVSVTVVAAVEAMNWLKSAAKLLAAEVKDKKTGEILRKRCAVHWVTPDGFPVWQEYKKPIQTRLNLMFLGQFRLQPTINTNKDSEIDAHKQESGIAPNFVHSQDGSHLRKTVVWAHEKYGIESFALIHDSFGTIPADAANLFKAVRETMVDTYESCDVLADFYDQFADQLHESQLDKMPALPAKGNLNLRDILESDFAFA

SMILES	transcription into RNA [1]	amplification efficiency and fidelity of incorporation [2]
COc1cc(C)c(C#CCNC(=O)C(Cl)Cl)cc1[C@@H]1O[C@H](COP(=O)(O)OP(=O)(O)OP(=O)(O)O)[C@@H](O)[C@H]1O [MMO2^PA]	high efficiency and fidelity	–
Cc1ccc2c(=S)n([C@H]3C[C@H](O)[C@@H](COP(O)(=S)OP(=O)(O)OP(=O)(O)O)O3)ccc2c1 (some centres unmarked) [d(5SICS-αS)TP]	–	greater than 99%

Source: patent US11634451B2, “Method for the site-specific enzymatic labelling of nucleic acids in vitro by incorporation of unnatural nucleotides” (The Scripps Research Institute, priority 2013, dated 2023)
